Our source for the Ki values is ChEMBL document CHEMBL1921689, “Synthesis and biological profile of new 1,2,3,4-tetrahydroisoquinolines as selective carbonic anhydrase inhibitors” (Bioorg Med Chem, 2011).

In general, Ki refers to the dissociation constant of the complex between target and ligand, obtained from inhibition or displacement. Lower therefore signals higher affinity.

Each structure is given as a SMILES string.

The assay concerns the target Carbonic anhydrase 9 (Homo sapiens, UniProt Q16790). Briefly: Inhibition of human CA9 catalytic domain preincubated for 15 mins by stopped flow CO2 hydration assay.
`COc1ccc2c(c1)CCN(S(N)(=O)=O)C2c1ccccc1` (racemic) returned a Ki of 78 nM. In turn, `COc1ccc2c(c1)CCN(S(N)(=O)=O)C2c1ccc(Br)cc1` (racemic) yielded a Ki of 60.7 nM. For the molecule `COc1ccc2c(c1)CCN(S(N)(=O)=O)C2c1ccc(C#N)cc1` (racemic), affinity was put at a Ki of 7 nM. The value for `COc1ccc2c(c1)CCN(S(N)(=O)=O)C2c1ccc(F)cc1` (racemic) was 31 nM; that for `COc1ccc2c(c1)CCN(S(N)(=O)=O)C2c1ccc(C)cc1` (racemic) was 7.5 nM; that for `COc1ccc2c(c1)CCN(S(N)(=O)=O)C2c1cccc([N+](=O)[O-])c1` (racemic) was 16 nM. With `COc1ccc2c(c1)CCN(S(N)(=O)=O)C2c1ccc([N+](=O)[O-])cc1` (racemic), the Ki worked out at 5 nM.

Consider `COc1ccc2c(c1)CCN(S(N)(=O)=O)C2c1cccc(N)c1` (racemic), for which the Ki was 18 nM. The value for `COc1ccc2c(c1)CCN(S(N)(=O)=O)C2c1ccc(N)cc1` (racemic) was 12 nM.
